The values that follow come from ChEMBL document CHEMBL5465560, “Selectivity Literature for EUbOPEN Chemogenomic Library” (2024).

Experiment [1] has as its target Fibroblast growth factor receptor 1 (Homo sapiens, UniProt P11362). Nature of the experiment: Selectivity interaction (SelectScreen profiling (Invitrogen)) EUB0000607a FGFR1. To be noted: at 2 µM.
Experiment [2] deals with Death-associated protein kinase 1 (Homo sapiens, UniProt P53355). To be noted: at 10 µM.
The target in experiment [3] is Epidermal growth factor receptor (Homo sapiens, UniProt P00533). To be noted: at 10 µM.
Experiment [4] addresses Serine/threonine-protein kinase MARK1 (Homo sapiens) (UniProt Q9P0L2). Description: Selectivity interaction (KinomeScan (DiscoverX)) EUB0000045b MARK1.
The target of experiment [5] is Mitogen-activated protein kinase 8 (Homo sapiens, UniProt P45983). Description: Selectivity interaction (ProQinase) EUB0000171b MAPK8.
The target in experiment [6] is T1, Serine/threonine-protein kinase Sgk1 (Homo sapiens) (UniProt O00141).
T1 sequence (whole entry): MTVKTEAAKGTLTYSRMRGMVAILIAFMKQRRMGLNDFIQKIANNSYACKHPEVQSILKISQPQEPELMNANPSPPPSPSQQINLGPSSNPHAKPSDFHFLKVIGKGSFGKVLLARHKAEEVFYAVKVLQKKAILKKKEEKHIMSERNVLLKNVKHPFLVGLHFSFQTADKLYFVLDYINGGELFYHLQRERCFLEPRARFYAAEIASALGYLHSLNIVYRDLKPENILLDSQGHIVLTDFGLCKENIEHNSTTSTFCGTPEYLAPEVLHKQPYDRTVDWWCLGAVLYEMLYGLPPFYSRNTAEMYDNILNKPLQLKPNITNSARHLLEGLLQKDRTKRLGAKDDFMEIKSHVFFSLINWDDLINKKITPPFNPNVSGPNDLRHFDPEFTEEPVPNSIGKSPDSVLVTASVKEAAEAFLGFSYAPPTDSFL
Description: Selectivity interaction (Upstate Kinase Profiler service (Millipore)) EUB0000056c SGK1. To be noted: at 1 µM.

The target in experiment [7] is T2, Aurora kinase A (Homo sapiens) (UniProt O14965).
T2 sequence (whole entry): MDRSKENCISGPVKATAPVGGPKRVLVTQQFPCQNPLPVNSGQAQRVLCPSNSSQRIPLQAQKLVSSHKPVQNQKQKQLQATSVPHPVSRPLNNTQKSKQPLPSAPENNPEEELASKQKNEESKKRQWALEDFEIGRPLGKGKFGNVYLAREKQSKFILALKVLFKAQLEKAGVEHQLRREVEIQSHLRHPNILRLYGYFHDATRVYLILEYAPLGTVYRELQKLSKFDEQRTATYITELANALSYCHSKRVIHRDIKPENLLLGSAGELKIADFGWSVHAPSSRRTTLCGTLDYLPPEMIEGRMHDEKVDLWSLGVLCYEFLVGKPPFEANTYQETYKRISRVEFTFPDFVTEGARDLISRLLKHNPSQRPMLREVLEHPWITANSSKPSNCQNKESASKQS
Nature of the experiment: Selectivity interaction (KinomeScan (DiscoverX)) EUB0000655a STK6. To be noted: at 10 µM.

Experiment [8] has as its target T3, Cyclin-dependent kinase-like 5 (Homo sapiens) (UniProt O76039).
T3 sequence (whole entry): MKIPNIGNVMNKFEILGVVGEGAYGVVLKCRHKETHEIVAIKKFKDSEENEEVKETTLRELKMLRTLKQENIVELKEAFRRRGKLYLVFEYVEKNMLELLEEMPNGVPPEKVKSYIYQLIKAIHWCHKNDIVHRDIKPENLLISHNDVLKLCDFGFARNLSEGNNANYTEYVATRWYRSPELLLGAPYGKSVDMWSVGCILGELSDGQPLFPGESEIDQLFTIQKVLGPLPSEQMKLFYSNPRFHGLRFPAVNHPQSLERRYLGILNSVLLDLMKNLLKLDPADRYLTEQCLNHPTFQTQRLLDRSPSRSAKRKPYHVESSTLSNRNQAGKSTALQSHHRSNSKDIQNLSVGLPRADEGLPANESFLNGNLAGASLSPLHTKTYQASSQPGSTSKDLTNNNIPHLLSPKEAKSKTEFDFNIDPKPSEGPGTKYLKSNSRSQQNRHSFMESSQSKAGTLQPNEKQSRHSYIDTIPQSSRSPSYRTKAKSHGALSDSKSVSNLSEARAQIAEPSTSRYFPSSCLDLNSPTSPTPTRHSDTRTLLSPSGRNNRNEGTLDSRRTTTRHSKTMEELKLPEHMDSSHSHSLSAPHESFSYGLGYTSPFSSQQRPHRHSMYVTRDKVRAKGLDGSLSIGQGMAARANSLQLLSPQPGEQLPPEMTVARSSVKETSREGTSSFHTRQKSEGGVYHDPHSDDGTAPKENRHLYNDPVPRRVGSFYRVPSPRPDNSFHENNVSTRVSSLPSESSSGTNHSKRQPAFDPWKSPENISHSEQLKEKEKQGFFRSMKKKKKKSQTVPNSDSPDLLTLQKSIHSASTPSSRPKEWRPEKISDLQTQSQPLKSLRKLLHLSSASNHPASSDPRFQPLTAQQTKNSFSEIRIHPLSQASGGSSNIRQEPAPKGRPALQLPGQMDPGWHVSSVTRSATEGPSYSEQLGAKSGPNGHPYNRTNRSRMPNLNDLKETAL
Description: Selectivity interaction (KinomeScan (DiscoverX)) EUB0000229b CDKL5. As to conditions: at 10 µM.

Serine/threonine-protein kinase MARK1 (Homo sapiens), sequence (Q9P0L2 whole entry, looked up): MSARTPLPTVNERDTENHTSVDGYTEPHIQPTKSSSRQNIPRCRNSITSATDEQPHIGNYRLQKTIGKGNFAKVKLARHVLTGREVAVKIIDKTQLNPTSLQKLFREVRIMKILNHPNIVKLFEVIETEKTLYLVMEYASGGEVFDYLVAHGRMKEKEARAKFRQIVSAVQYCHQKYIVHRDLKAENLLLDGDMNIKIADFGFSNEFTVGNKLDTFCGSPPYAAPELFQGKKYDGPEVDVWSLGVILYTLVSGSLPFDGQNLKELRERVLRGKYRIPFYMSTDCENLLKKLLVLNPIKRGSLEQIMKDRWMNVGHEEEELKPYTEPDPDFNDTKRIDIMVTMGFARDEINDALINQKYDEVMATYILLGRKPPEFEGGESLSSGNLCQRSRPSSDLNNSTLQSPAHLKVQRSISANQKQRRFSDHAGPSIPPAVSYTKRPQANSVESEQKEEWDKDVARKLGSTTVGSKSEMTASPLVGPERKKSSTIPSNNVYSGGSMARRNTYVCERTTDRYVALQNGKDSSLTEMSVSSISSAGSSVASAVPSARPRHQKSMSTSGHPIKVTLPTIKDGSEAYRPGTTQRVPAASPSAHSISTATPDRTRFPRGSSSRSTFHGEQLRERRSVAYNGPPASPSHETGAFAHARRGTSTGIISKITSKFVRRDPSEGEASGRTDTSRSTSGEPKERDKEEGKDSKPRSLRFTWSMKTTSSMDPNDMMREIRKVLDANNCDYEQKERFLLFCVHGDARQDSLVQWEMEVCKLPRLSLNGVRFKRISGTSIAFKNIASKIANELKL
Mitogen-activated protein kinase 8, sequence (P45983 whole entry): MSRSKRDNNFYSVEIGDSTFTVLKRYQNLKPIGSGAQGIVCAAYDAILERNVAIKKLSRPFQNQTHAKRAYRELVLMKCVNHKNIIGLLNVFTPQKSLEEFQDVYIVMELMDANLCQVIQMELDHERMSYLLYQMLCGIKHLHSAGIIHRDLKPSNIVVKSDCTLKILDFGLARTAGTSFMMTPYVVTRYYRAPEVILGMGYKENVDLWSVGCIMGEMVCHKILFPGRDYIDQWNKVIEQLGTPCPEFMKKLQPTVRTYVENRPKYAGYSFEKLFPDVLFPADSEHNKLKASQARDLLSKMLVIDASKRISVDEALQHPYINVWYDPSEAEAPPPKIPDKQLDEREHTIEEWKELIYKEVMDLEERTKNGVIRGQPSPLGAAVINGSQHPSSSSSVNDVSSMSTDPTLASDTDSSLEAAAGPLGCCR
Death-associated protein kinase 1, sequence (P53355 whole entry, looked up): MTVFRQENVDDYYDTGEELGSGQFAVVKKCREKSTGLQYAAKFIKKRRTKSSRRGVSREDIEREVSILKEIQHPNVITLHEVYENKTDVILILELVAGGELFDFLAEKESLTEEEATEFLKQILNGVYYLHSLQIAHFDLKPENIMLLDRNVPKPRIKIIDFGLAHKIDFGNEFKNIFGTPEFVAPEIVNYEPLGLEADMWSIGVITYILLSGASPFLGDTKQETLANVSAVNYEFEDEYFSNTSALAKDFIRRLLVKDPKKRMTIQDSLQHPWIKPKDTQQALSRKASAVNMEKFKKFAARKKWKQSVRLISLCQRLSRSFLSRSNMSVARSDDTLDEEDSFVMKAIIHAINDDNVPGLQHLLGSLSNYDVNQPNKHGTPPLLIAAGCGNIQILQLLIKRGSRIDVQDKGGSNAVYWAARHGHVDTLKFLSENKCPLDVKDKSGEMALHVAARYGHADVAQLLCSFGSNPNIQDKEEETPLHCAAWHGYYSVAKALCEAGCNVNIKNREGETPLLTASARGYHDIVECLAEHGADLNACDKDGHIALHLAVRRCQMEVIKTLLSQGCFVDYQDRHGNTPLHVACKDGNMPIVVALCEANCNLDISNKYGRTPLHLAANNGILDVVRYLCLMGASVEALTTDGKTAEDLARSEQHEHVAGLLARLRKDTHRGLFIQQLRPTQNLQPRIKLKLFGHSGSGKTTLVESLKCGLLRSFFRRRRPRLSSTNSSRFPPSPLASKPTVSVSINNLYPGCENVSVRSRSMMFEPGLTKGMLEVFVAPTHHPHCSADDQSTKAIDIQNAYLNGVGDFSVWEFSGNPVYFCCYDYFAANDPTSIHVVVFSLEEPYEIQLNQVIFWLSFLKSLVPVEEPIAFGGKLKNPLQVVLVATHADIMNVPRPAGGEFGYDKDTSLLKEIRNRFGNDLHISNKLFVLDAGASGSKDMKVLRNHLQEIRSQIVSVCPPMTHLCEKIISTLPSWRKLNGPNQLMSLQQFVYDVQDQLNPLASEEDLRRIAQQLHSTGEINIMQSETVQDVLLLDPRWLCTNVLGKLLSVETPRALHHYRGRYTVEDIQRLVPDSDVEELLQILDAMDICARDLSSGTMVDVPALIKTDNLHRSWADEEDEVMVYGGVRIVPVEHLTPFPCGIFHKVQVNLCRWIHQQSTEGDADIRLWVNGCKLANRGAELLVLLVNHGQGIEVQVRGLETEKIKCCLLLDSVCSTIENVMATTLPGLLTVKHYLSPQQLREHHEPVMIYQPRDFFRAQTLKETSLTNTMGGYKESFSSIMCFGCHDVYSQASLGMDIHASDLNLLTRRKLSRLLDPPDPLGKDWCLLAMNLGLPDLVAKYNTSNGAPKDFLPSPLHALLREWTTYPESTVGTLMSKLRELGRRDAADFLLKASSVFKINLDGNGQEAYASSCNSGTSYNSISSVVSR
Epidermal growth factor receptor, sequence (P00533 whole entry): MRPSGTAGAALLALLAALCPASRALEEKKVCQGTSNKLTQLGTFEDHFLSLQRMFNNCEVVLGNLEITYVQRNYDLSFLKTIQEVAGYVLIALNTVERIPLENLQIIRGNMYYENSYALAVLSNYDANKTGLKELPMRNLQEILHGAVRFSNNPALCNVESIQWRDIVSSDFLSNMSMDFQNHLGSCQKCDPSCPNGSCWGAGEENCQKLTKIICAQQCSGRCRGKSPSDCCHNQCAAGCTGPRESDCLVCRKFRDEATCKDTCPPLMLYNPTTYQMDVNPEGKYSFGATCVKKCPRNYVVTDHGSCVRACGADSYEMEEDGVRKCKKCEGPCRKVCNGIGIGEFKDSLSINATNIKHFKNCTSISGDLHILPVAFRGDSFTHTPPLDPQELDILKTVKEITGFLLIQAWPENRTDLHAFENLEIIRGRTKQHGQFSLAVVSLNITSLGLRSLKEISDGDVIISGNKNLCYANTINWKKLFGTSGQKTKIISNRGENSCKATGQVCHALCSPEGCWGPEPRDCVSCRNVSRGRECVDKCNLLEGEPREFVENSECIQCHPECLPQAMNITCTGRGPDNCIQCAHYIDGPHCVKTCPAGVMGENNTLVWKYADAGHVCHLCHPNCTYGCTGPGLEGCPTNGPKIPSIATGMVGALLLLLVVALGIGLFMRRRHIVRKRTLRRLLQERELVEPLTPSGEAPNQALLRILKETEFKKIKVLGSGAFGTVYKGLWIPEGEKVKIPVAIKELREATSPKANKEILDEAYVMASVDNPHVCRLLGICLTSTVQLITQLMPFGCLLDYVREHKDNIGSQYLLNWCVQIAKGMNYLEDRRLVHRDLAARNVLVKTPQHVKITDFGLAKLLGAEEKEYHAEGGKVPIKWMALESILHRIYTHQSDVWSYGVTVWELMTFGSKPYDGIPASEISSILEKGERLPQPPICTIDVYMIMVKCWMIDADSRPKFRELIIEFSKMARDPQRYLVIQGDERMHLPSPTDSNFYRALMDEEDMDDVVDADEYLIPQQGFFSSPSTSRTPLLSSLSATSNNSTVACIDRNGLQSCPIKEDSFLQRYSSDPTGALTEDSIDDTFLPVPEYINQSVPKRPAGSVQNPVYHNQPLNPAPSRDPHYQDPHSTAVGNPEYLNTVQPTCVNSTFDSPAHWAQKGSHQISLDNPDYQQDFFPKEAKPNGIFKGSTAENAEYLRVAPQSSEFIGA
Fibroblast growth factor receptor 1, sequence (P11362 22-822 limits assumed): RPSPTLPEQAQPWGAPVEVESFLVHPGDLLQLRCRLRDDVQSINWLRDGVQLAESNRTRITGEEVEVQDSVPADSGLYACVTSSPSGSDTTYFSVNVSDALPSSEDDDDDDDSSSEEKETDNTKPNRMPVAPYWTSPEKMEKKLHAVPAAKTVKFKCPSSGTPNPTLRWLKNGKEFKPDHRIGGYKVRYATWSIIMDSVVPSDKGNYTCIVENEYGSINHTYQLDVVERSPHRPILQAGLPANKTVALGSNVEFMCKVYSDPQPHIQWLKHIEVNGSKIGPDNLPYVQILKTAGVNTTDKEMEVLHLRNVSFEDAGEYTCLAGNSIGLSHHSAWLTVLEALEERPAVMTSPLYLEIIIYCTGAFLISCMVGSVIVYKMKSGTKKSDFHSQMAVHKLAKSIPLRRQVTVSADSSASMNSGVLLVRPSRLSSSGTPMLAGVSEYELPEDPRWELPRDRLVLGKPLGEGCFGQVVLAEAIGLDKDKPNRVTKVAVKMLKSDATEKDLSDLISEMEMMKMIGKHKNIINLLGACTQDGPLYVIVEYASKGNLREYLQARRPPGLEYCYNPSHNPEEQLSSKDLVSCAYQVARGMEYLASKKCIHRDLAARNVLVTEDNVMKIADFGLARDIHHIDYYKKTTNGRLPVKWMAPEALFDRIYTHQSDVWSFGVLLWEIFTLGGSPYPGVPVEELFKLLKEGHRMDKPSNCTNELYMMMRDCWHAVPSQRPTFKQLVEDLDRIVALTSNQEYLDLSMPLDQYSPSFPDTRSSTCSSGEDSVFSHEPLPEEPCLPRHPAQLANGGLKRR

`CNC(=O)Nc1ccc(-c2nc(N3CC4CCC(C3)O4)c3cnn(C4CCC5(CC4)OCCO5)c3n2)cc1` came in with a % of inhibition in experiment [1] of 4%.
With `Cc1cc([C@@H](C)Nc2ccccc2C(=O)O)c2nc(N3CCOCC3)cc(=O)n2c1` [AZD-6482], the values for the % of control in experiment [2] and in experiment [3] were 95% and 96%, respectively.
Turning to `C=CC(=O)Nc1cc(-n2c(=O)ccc3cnc4ccc(-c5ccc(NS(C)(=O)=O)cc5)cc4c32)ccc1C`, the % of control came out at 97% in experiment [4] (at 1 µM) and 89% in experiment [4] (at 10 µM).
Consider `C=CC(=O)Nc1cccc(C(=O)Nc2ccc(Nc3cc(-c4[nH]c(SC)nc4C)ccn3)cc2)c1`, for which the % of control was found to be 5% in experiment [5] (at 1 µM) and 1% in experiment [5] (at 5 µM).
In the case of `Cc1ccc(-c2ccc3c(ccc4sc5c(c43)NC[C@@H](C)NC5=O)n2)cn1`, in experiment [6], the % of inhibition worked out at 4%.
In experiment [7], `CN(C)CCOc1ccc(-c2nc(-c3ccncc3)c(-c3ccc4c(c3)CC/C4=N\O)[nH]2)cc1` gave a % of control of 90%.
For `COc1cc(N(C)c2ccnc3ccc(C(F)(F)F)cc23)cc(OC)c1OC`, in experiment [8], the % binding was 86%.
